Measurements reported in patent publication US8470822B2, “Folate mimetics and folate-receptor binding conjugates thereof” (Purdue Research Foundation, priority 2001, dated 2013).
Values joined by “and” are separate entries in the source; they are usually repeats but may differ in a detail not shown here. Equal entries are not always repeated.

Tested on: folate-receptor-positive human KB cell tumor xenografts
Experiment: Biodistribution of 111In radiotracer in KB tumor-bearing athymic mice after intravenous administration
Type: in vivo
Settings: for Percentage of Injected 111In Dose Per Organ (Tissue): Muscle: muscle assumed 42% of body mass
Description: Our primary animal model for evaluation of the biodistribution and pharmacokinetics of folate-receptor-targeted radiopharmaceuticals has been athymic mice bearing subcutaneously implanted folate-receptor-positive human KB cell tumors. […] After 3 weeks on folate-free diet, mouse serum folate levels drop to 25±7 nM from the initial 720±260 nM serum folate level when the animals are fed normal rodent chow. This dietary intervention is believed to be a reasonable manipulation of the animal model, since the mice would have serum folate levels only slightly higher than the folate concentration of normal human serum. Thus, in these mouse biodistribution studies the radiotracer is competing for tumor folate receptors with physiologically relevant concentrations of endogenous unlabeled serum folate.
The substantial retention of ^111In in the kidneys is fully consistent with the binding of ^111In-CYK4-013 to tissue folate receptors, since the renal proximal tubule is a known normal tissue site of folate receptor expression. […] The behavior of the ^111In-CYK4-013 radiopharmaceutical in this animal model (Table 2) is very similar to that observed for ^111In-DTPA-Folate (Table 3).
Results. Similar to ^111In-DTPA-Folate, ^111In-CYK4-013 selectively localized in the folate-receptor-positive tumor xenografts, and afforded prolonged tumor retention of ^111In (5.4±0.8; 5.5±1.1; and 3.6±0.6% ID/g at 1 hour, 4 hours, and 24 hours, respectively) (Table 2). […] Blockable binding was also observed in the kidneys, where the folate receptor occurs in the proximal tubules.

[1] = 1 Hour after intravenous administration
[2] = 4 Hours after intravenous administration

Nc1nc(O)c2nc(CNc3ccc(C(=O)NCCOCCOCCNC(=O)CN(CCN(CCN(CC(=O)O)CC(=O)O)CC(=O)O)CC(=O)O)cc3)cnc2n1.[111In+3] [^111In-CYK4-013]
Percentage of Injected 111In Dose Per Gram (Tissue Wet Mass): Blood [1]: 0.18 ± 0.01 % ID/g
Percentage of Injected 111In Dose Per Gram (Tissue Wet Mass): Heart [1]: 3.5 ± 0.4 % ID/g
Percentage of Injected 111In Dose Per Gram (Tissue Wet Mass): Kidney (one) [1]: 61 ± 5 % ID/g
Percentage of Injected 111In Dose Per Gram (Tissue Wet Mass): Liver & Gall Bladder [1]: 4.3 ± 0.7 % ID/g
Percentage of Injected 111In Dose Per Gram (Tissue Wet Mass): Lungs [1]: 1.5 ± 0.2 % ID/g
Percentage of Injected 111In Dose Per Gram (Tissue Wet Mass): Muscle [1]: 3.5 ± 0.5 % ID/g
Percentage of Injected 111In Dose Per Gram (Tissue Wet Mass): Spleen [1]: 0.31 ± 0.09 % ID/g
Percentage of Injected 111In Dose Per Gram (Tissue Wet Mass): Stomach, Intestines & Contents [1]: 1.7 ± 0.2 % ID/g
Percentage of Injected 111In Dose Per Gram (Tissue Wet Mass): Tumor [1]: 5.4±0.8 % ID/g
Percentage of Injected 111In Dose Per Organ (Tissue): Blood [1]: 0.29 ± 0.003 Percentage of Injected 111In D
Percentage of Injected 111In Dose Per Organ (Tissue): Heart [1]: 0.51 ± 0.09 Percentage of Injected 111In D
Percentage of Injected 111In Dose Per Organ (Tissue): Kidney (one) [1]: 15.3 ± 1.2 Percentage of Injected 111In D
Percentage of Injected 111In Dose Per Organ (Tissue): Liver & Gall Bladder [1]: 6.8 ± 1.3 Percentage of Injected 111In D
Percentage of Injected 111In Dose Per Organ (Tissue): Lungs [1]: 0.69 ± 0.06 Percentage of Injected 111In D
Percentage of Injected 111In Dose Per Organ (Tissue): Spleen [1]: 0.063 ± 0.016 Percentage of Injected 111In D
Percentage of Injected 111In Dose Per Organ (Tissue): Stomach, Intestines & Contents [1]: 5.8 ± 0.5 Percentage of Injected 111In D
Percentage of Injected 111In Dose Per Organ (Tissue): Tumor [1]: 0.78 ± 0.47 Percentage of Injected 111In D
Tumor/blood ratio [1]: 30 ± 5
Tumor/kidney ratio [1]: 0.088 ± 0.013
Tumor/liver ratio [1]: 1.3 ± 0.4
Tumor/muscle ratio [1]: 1.6 ± 0.4
Percentage of Injected 111In Dose Per Organ (Tissue): Muscle [1]: 43.6 ± 4.1 Percentage of Injected 111In D
Percentage of Injected 111In Dose Per Gram (Tissue Wet Mass): Blood [2]: 0.050 ± 0.009 % ID/g
Percentage of Injected 111In Dose Per Gram (Tissue Wet Mass): Heart [2]: 2.9 ± 0.9 % ID/g
Percentage of Injected 111In Dose Per Gram (Tissue Wet Mass): Kidney (one) [2]: 81 ± 7 % ID/g
Percentage of Injected 111In Dose Per Gram (Tissue Wet Mass): Liver & Gall Bladder [2]: 1.9 ± 0.6 % ID/g
Percentage of Injected 111In Dose Per Gram (Tissue Wet Mass): Lungs [2]: 1.4 ± 0.3 % ID/g
Percentage of Injected 111In Dose Per Gram (Tissue Wet Mass): Muscle [2]: 2.8 ± 0.8 % ID/g
Percentage of Injected 111In Dose Per Gram (Tissue Wet Mass): Spleen [2]: 0.29 ± 0.07 % ID/g
Percentage of Injected 111In Dose Per Gram (Tissue Wet Mass): Stomach, Intestines & Contents [2]: 1.5 ± 0.9 % ID/g
Percentage of Injected 111In Dose Per Gram (Tissue Wet Mass): Tumor [2]: 5.5±1.1 % ID/g and 5.6 ± 1.1 % ID/g
Percentage of Injected 111In Dose Per Organ (Tissue): Blood [2]: 0.078 ± 0.010 Percentage of Injected 111In D
Percentage of Injected 111In Dose Per Organ (Tissue): Heart [2]: 0.41 ± 0.08 Percentage of Injected 111In D
Percentage of Injected 111In Dose Per Organ (Tissue): Kidney (one) [2]: 20.2 ± 1.6 Percentage of Injected 111In D
Percentage of Injected 111In Dose Per Organ (Tissue): Liver & Gall Bladder [2]: 3.0 ± 1.0 Percentage of Injected 111In D
Percentage of Injected 111In Dose Per Organ (Tissue): Lungs [2]: 0.60 ± 0.01 Percentage of Injected 111In D
Percentage of Injected 111In Dose Per Organ (Tissue): Spleen [2]: 0.049 ± 0.012 Percentage of Injected 111In D
Percentage of Injected 111In Dose Per Organ (Tissue): Stomach, Intestines & Contents [2]: 5.4 ± 0.8 Percentage of Injected 111In D
Percentage of Injected 111In Dose Per Organ (Tissue): Tumor [2]: 0.46 ± 0.26 Percentage of Injected 111In D
Tumor/blood ratio [2]: 111 ± 11
Tumor/kidney ratio [2]: 0.069 ± 0.013
Tumor/liver ratio [2]: 3.0 ± 0.5
Tumor/muscle ratio [2]: 2.1 ± 0.2
Percentage of Injected 111In Dose Per Organ (Tissue): Muscle [2]: 33 ± 9 Percentage of Injected 111In D
Percentage of Injected 111In Dose Per Gram (Tissue Wet Mass): Blood (4 Hours, Blocked: co-injection of folic acid dihydrate 4.1 ± 0.4 mg/kg): 0.016 ± 0.010 % ID/g
